Our source for the stoichiometry N and Ka values is PMC5889867, “Inhibition of Protein Aggregation by Several Antioxidants” (Oxidative Medicine and Cellular Longevity, 2018).

“And” between values parts separate entries of the source, which are not always exact repeats. Identical values can stand only once.

One assay addresses human stefin B (stB wt), recombinant, Cys 3 replaced with Ser (human) (UniProt P04080). The assay can be described thus: cross-linking; stB wt fibrillation mixture (34 uM protein, 0.015 M acetate buffer, 0.15 M NaCl, pH 4.8, 10% v/v TFE, room temperature) aged 24 hours, with or without antioxidants (NAC, vit C and others); cross-linked with 50-fold molar excess of BS3, then SDS-PAGE.
Conditions: not given
For the molecule “human stefin B (stB wt), recombinant, Cys 3 replaced with Ser (from UniProt P04080 8-98) (natural protein)”, the stoichiometry N was 2 and > 4.

A further assay deals with T1, human stefin B (stB wt) (Homo sapiens, UniProt P04080, C3S).
T1 construct: gene CSTB; Cys3 replaced by Ser
T1 sequence (P04080 1-98 C3S): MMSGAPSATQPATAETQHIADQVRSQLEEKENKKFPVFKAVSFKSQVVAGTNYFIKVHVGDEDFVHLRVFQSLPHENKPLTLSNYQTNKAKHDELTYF
The assay can be described thus: intrinsic Tyr fluorescence quenching, modified Stern-Volmer. Format: binding. The settings on record: 34 uM protein, 25 C, excitation 277 nm.
For `CC(=O)N[C@@H](CS)C(=O)O` [NAC, (2R)-2-acetamido-3-sulfanyl propanoic acid], the Ka result is listed as “each compound also acts as a quencher of tyrosine fluorescence”. With `COc1cc(/C=C/C(=O)CC(=O)/C=C/c2ccc(O)c(OC)c2)ccc1O` [curcumin, (1E,6E)-1,7-bis(4-hydroxy-3-methoxyphenyl)hepta-1,6-diene-3,5-dione], the Ka entry is “binding constants show that curcumin binds more tightly than do other antioxidants studied here”. Still for that read-out and setting: the result for `O=c1c(O)c(-c2ccc(O)c(O)c2)oc2cc(O)cc(O)c12` [quercetin, 2-(3,4-dihydroxyphenyl)-3,5,7-trihydroxy-4H-chromen-4-one] reads “each compound also acts as a quencher of tyrosine fluorescence”. The same measure, in the same setting: the result for `Oc1ccc(/C=C/c2cc(O)cc(O)c2)cc1` [resveratrol, 3,5,40-trihydroxystilbene] reads “each compound also acts as a quencher of tyrosine fluorescence”. Turning to `O=C1O[C@H]([C@@H](O)CO)C(O)=C1O` [vitamin C, (2R)-2-[(1S)-1,2-dihydroxyethyl]-3,4-dihydroxy-2H-furan-5-one], the Ka entry is given as “each compound also acts as a quencher of tyrosine fluorescence”.
